According to patent publication US11951269B2, “Drug-coated medical devices” (Medtronic Vascular, Inc., priority 2018, dated 2024):

Key:
[1] = Solubility of DEX in various solvents; assay type: physicochemical
[2] = In vivo porcine model: coated balloon deployed in femoral arteries, drug concentration in tissue; settings: for concentration at 1 day / concentration at 28 days: pig, femoral artery tissue, porcine femoral arteries, n=18, read-out: median concentration in the tissue; for concentration at 28 days: after 28 days; for vessels in which drug was detectable: porcine
Description: In vivo studies are also performed. […] After 1 day, the median sirolimus concentration in the tissue is about 0.62 μg/g, and after 28 days the median concentration is about 0.07 μg/g (n=18).

[3] = Ex-vivo model: coated balloon inflated against bovine carotid artery in simulated flow loop, drug by HPLC; settings: for tissue concentration average: bovine carotid artery ex vivo, n=5
Description: The coated balloons were inflated against tissue in an ex-vivo model. Briefly, the model included a bovine carotid artery mounted in a simulated flow loop comprising appropriately sized tubing. The system was maintained at 37° C. A standard hemostasis valve and 8 Fr introducer sheath are used to introduce the coated balloon into the tubing, the balloon is tracked through the sheath and tubing into the bovine carotid artery, and the balloon is deployed (inflated to approximately 1.1 B.A.R. and held for 60 s) against the bovine carotid artery tissue. The tissue and balloon are removed for analysis. […] Briefly, the amount of drug was measured by using HPLC of extracted solutions from testing specimens, such as utilizing a solvent to solubilize and remove all remaining drug from the balloon for analysis.

Structure (SMILES)	DEX solubility ([1]; solvent Acetone) [mg\mL]	DEX solubility ([1]; solvent Acetonitrile) [mg\mL]	DEX solubility ([1]; solvent Ethanol) [mg\mL]	DEX solubility ([1]; solvent Methanol) [mg\mL]	DEX solubility ([1]; solvent THF) [mg\mL]	concentration at 1 day ([2]; after 1 day) [ng/g]	concentration at 28 days [2] [ng/g]	vessels in which drug was detectable ([2]; after 1 day)	vessels in which drug was detectable ([2]; day 28)	tissue concentration average [3]	drug transferred to the tissue ([3]; sirolimus/urea first layer, DEX/urea second layer, bovine carotid artery, 37° C., inflated 60 s)
C[C@@H]1C[C@H]2[C@@H]3CCC4=CC(=O)C=C[C@]4(C)[C@@]3(F)[C@@H](O)C[C@]2(C)[C@@]1(O)C(=O)CO [DEX, dexamethasone]	12	10	8	15	30	~0.525	~0.5	four of six vessels	two of six vessels	about 22.6 μg DEX/g of tissue	–
CO[C@H]1C[C@@H]2CC[C@@H](C)[C@@](O)(O2)C(=O)C(=O)N2CCCC[C@H]2C(=O)O[C@H]([C@H](C)C[C@@H]2CC[C@@H](O)[C@H](OC)C2)CC(=O)[C@H](C)/C=C(\C)[C@@H](O)[C@@H](OC)C(=O)[C@H](C)C[C@H](C)/C=C/C=C/C=C/1C [sirolimus]	–	–	–	–	–	~620	~70	–	–	about 25.9 μg sirolimus/g of tissue	About 1.7%
